Test system: T-47D spheroids with HUVEC/MSC, viability
Experiment: Anticancer human tumor T-47D cell line growth inhibition [PI3K];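 also: spheroids exposed to agents for seven days before reading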;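 as to viability, T/C: percent of DMSO vehicle control luminescence so 100% = untreated growth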
Details: for IC50: curve of first compound; for viability, T/C: stronger effect = lower value
Source text: Combinatorial screen of targeted agents with the PI3K inhibitors inavolisib, alpelisib, duvelisib, and copanlisib in multi-cell type tumor spheroids
A high-throughput screen of multi-cell type tumor spheroids was designed to identify active combinations of targeted small molecules and PI3K pathway inhibitors. Complex spheroids include a stromal component modeled by human endothelial cells (HUVEC) and fibroblasts modeled by human mesenchymal stem cells (MSCs). The concentration ranges selected for each drug and investigational agent were based upon clinically achievable concentrations if the clinical Cmax of the agent was known.
Compounds. The drugs and investigational agents: inavolisib (NSC800729), alpelisib (NSC765974), duvelisib (NSC772469), copanlisib (NSC816437), ipatasertib (NSC767898), afuresertib (NSC778305), talazoparib (NSC767125), sapanisertib (NSC764658), selumetinib (NSC741078), tovorafenib (DAY101, NSC766906), vemurafenib (NSC761431), ravoxertinib (NSC781343), sotorasib (NSC818433), MRTX1133 (NSC 836407), abemaciclib (NSC 768073), palbociclib (NSC758247), venetoclax (NSC 766270), SY5609 (NSC837396), enzalutamide (NSC755605), and darolutamide (NSC825331), were obtained from the National Cancer Institute (NCI) Developmental Therapeutics Program Chemical Repository. The FDA-approved anticancer drug set is available from the NCI Developmental Therapeutics Program. […] The stock solutions were prepared in dimethyl sulfoxide (DMSO, Sigma-Aldrich, St. Louis, MO, cat. D2650) at 800-fold the tested concentration and stored at -70 degrees C prior to their use. All drugs and investigational agents were tested over a range starting from a high concentration at or near the clinical Cmax and decreasing in half-log increments. If the clinical Cmax for an agent had not been determined, the highest concentration tested was 10 microM.
Cell Culture. All cells were maintained in an incubator at 37 degrees C and 5% CO2 with 95% humidity. The PDC lines were cultured according to standard operating procedures established by the NCI PDMR (https://pdmr.cancer.gov/sops/default.htm). All PDCs were thawed and cultured in Matrigel-coated flasks prepared with a working solution of 1X Ham's F-12 nutrient mix, without supplementation (Invitrogen, Waltham, MA, cat. 11765054), 100 U/mL penicillin-streptomycin (Invitrogen, cat. 15140122), and 2.5% Matrigel (Corning Inc., Corning, NY, cat. 354248) for the first three passages. The 354836-022-R-J1-PDC, 475296-252-R-J1-PDC, and 997726-040-R-J2-PDC lines were cultured in 6A media, which includes advanced DMEM/F-12 (Thermo Fisher Scientific, cat. 12634028), 10 mM HEPES (Thermo Fisher Scientific, cat. 15630080), 1X GlutaMAX supplement (Thermo Fisher Scientific, cat. 35050061), 0.1 mg/mL primocin (InvivoGen, San Diego, CA, cat. ant-pm-2), 10% defined fetal bovine serum, heat inactivated (HyClone Laboratories Inc., Logan, UT, cat. SH30070.03HI), 50% L-WRN conditioned media (ATCC, cat. CRL-3276), 1.25 mM N-Acetyl-L-cysteine (Sigma-Aldrich, cat. A9165), 10 mM nicotinamide (Sigma-Aldrich, cat. N0636), 1X B-27 supplement (Thermo Fisher Scientific, cat. 17504044), 1X N-2 supplement (Thermo Fisher Scientific, cat. 17502048), and 10 microM Y-27632 dihydrochloride (Tocris Bioscience, Bristol, United Kingdom, cat. 1254). The 624824-186-R-J2-PDC line was cultured in 6C/Colon 1B media, which includes all 6A media components plus 50 ng/mL human EGF recombinant protein (Thermo Fisher Scientific, cat. PHG0311). […]

[1] = second compound 0.00316 µM, first compound 0.0316 µM
[2] = second compound 0.00316 µM, first compound 0.1 µM
[3] = second compound 0.00316 µM, first compound 0.316 µM
[4] = second compound 0.00316 µM, first compound 1 µM
[5] = second compound 0.00316 µM, first compound 3.16 µM
[6] = second compound 0.00316 µM, first compound 10 µM
[7] = second compound 0.01 µM, first compound 0.0316 µM
[8] = second compound 0.01 µM, first compound 0.1 µM
[9] = second compound 0.01 µM, first compound 0.316 µM
[10] = second compound 0.01 µM, first compound 1 µM
[11] = second compound 0.01 µM, first compound 3.16 µM
[12] = second compound 0.01 µM, first compound 10 µM
[13] = second compound 0.0316 µM, first compound 0.0316 µM
[14] = second compound 0.0316 µM, first compound 0.1 µM
[15] = second compound 0.0316 µM, first compound 0.316 µM
[16] = second compound 0.0316 µM, first compound 1 µM
[17] = second compound 0.0316 µM, first compound 3.16 µM
[18] = second compound 0.0316 µM, first compound 10 µM
[19] = second compound 0.1 µM, first compound 0.0316 µM
[20] = second compound 0.1 µM, first compound 0.1 µM
[21] = second compound 0.1 µM, first compound 0.316 µM
[22] = second compound 0.1 µM, first compound 1 µM
[23] = second compound 0.1 µM, first compound 3.16 µM
[24] = second compound 0.1 µM, first compound 10 µM
[25] = second compound 0.316 µM, first compound 0.0316 µM
[26] = second compound 0.316 µM, first compound 0.1 µM
[27] = second compound 0.316 µM, first compound 0.316 µM
[28] = second compound 0.316 µM, first compound 1 µM
[29] = second compound 0.316 µM, first compound 3.16 µM
[30] = second compound 0.316 µM, first compound 10 µM
[31] = second compound 1 µM, first compound 0.0316 µM
[32] = second compound 1 µM, first compound 0.1 µM
[33] = second compound 1 µM, first compound 0.316 µM
[34] = second compound 1 µM, first compound 1 µM
[35] = second compound 1 µM, first compound 3.16 µM
[36] = second compound 1 µM, first compound 10 µM

`CC1(C)CCC(CN2CCN(c3ccc(C(=O)NS(=O)(=O)c4ccc(NCC5CCOCC5)c([N+](=O)[O-])c4)c(Oc4cnc5[nH]ccc5c4)c3)CC2)=C(c2ccc(Cl)cc2)C1` + CC(Nc1ccc2c(c1)OCCn1cc(N3C(=O)OCC3C(F)F)nc1-2)C(N)=O gave an IC50 (second compound 0.00316 µM) of over 10 µM, an IC50 (second compound 0.01 µM) of over 10 µM and an IC50 (second compound 0.0316 µM) of over 10 µM. The IC50 (second compound 0.1 µM) was over 10 µM, the IC50 (second compound 0.316 µM) was over 10 µM and the IC50 (second compound 1 µM) was 4.16 µM. For the same compound, the viability, T/C [1] was 101%, the viability, T/C [2] was 97.2% and the viability, T/C [3] was 98.9%. The viability, T/C [4] was 89.8%, the viability, T/C [5] was 76.3% and the viability, T/C [6] was 78.9%. It also gave a viability, T/C [7] of 90.1%, a viability, T/C [8] of 81.5% and a viability, T/C [9] of 93.7%. For the same compound, the viability, T/C [10] was 91.6%, the viability, T/C [11] was 79.5% and the viability, T/C [12] was 69.7%. The viability, T/C [13] was 87.3%, the viability, T/C [14] was 94% and the viability, T/C [15] was 103%. For the same compound, the viability, T/C [16] was 75.5%, the viability, T/C [17] was 87% and the viability, T/C [18] was 65.5%. The viability, T/C [19] was 77.6%, the viability, T/C [20] was 76.3% and the viability, T/C [21] was 89.6%. For the same compound, the viability, T/C [22] was 87.5%, the viability, T/C [23] was 89.5% and the viability, T/C [24] was 53.4%. For the same compound, the viability, T/C [25] was 65.5%, the viability, T/C [26] was 79.2% and the viability, T/C [27] was 69.7%. For the same compound, the viability, T/C [28] was 61.4%, the viability, T/C [29] was 72.9% and the viability, T/C [30] was 52.1%. For the same compound, the viability, T/C [31] was 52.9%, the viability, T/C [32] was 54.5% and the viability, T/C [33] was 61%. It also gave a viability, T/C [34] of 57.2%, a viability, T/C [35] of 53% and a viability, T/C [36] of 38.3%.
With `C[C@@H](NC(=O)c1ncnc(N)c1Cl)c1ncc(C(=O)Nc2cc(C(F)(F)F)c(Cl)cn2)s1` + CC(Nc1ccc2c(c1)OCCn1cc(N3C(=O)OCC3C(F)F)nc1-2)C(N)=O the IC50 (second compound 0.00316 µM) was over 10 µM, the IC50 (second compound 0.01 µM) was over 10 µM and the IC50 (second compound 0.0316 µM) was over 10 µM. For the same compound, the IC50 (second compound 0.1 µM) was over 10 µM, the IC50 (second compound 0.316 µM) was over 10 µM and the IC50 (second compound 1 µM) was over 10 µM. For the same compound, the viability, T/C [1] was 110%, the viability, T/C [2] was 92.2% and the viability, T/C [3] was 87.9%. It also gave a viability, T/C [4] of 79.2%, a viability, T/C [5] of 94.5% and a viability, T/C [6] of 99.3%. It also gave a viability, T/C [7] of 104%, a viability, T/C [8] of 85.3% and a viability, T/C [9] of 87.4%. The viability, T/C [10] was 83.3%, the viability, T/C [11] was 113% and the viability, T/C [12] was 101%. The viability, T/C [13] was 95.2%, the viability, T/C [14] was 87.3% and the viability, T/C [15] was 83.8%. The viability, T/C [16] was 86.2%, the viability, T/C [17] was 91.4% and the viability, T/C [18] was 94.7%. The viability, T/C [19] was 79.8%, the viability, T/C [20] was 82% and the viability, T/C [21] was 83.3%. The viability, T/C [22] was 97.1%, the viability, T/C [23] was 97.4% and the viability, T/C [24] was 94.4%. It also gave a viability, T/C [25] of 69.4%, a viability, T/C [26] of 79.6% and a viability, T/C [27] of 75.2%. The viability, T/C [28] was 69.8%, the viability, T/C [29] was 71.8% and the viability, T/C [30] was 74.3%. The viability, T/C [31] was 52.9%, the viability, T/C [32] was 53.4% and the viability, T/C [33] was 65%. The viability, T/C [34] was 57.9%, the viability, T/C [35] was 62.3% and the viability, T/C [36] was 65.8%.
`Cn1ncnc1[C@H]1c2n[nH]c(=O)c3cc(F)cc(c23)N[C@@H]1c1ccc(F)cc1` + CC(Nc1ccc2c(c1)OCCn1cc(N3C(=O)OCC3C(F)F)nc1-2)C(N)=O gave an IC50 (second compound 0.00316 µM) of over 0.1 µM, an IC50 (second compound 0.01 µM) of over 0.1 µM and an IC50 (second compound 0.0316 µM) of over 0.1 µM. For the same compound, the IC50 (second compound 0.1 µM) was over 0.1 µM, the IC50 (second compound 0.316 µM) was over 0.1 µM and the IC50 (second compound 1 µM) was over 0.1 µM. For the same compound, the viability, T/C (second compound 0.00316 µM, first compound 0.000316 µM) was 88.8%, the viability, T/C (second compound 0.00316 µM, first compound 0.001 µM) was 82.8% and the viability, T/C (second compound 0.00316 µM, first compound 0.00316 µM) was 109%. It also gave a viability, T/C (second compound 0.00316 µM, first compound 0.01 µM) of 86.9%, a viability, T/C [1] of 96.3% and a viability, T/C [2] of 112%. The viability, T/C (second compound 0.01 µM, first compound 0.000316 µM) was 113%, the viability, T/C (second compound 0.01 µM, first compound 0.001 µM) was 78.7% and the viability, T/C (second compound 0.01 µM, first compound 0.00316 µM) was 80.3%. It also gave a viability, T/C (second compound 0.01 µM, first compound 0.01 µM) of 96.2%, a viability, T/C [7] of 91.3% and a viability, T/C [8] of 89.4%. For the same compound, the viability, T/C (second compound 0.0316 µM, first compound 0.000316 µM) was 108%, the viability, T/C (second compound 0.0316 µM, first compound 0.001 µM) was 74.7% and the viability, T/C (second compound 0.0316 µM, first compound 0.00316 µM) was 88.8%. The viability, T/C (second compound 0.0316 µM, first compound 0.01 µM) was 85%, the viability, T/C [13] was 81.2% and the viability, T/C [14] was 75.8%. It also gave a viability, T/C (second compound 0.1 µM, first compound 0.000316 µM) of 79.2%, a viability, T/C (second compound 0.1 µM, first compound 0.001 µM) of 76.7% and a viability, T/C (second compound 0.1 µM, first compound 0.00316 µM) of 78.3%. It also gave a viability, T/C (second compound 0.1 µM, first compound 0.01 µM) of 81.6%, a viability, T/C [19] of 86.5% and a viability, T/C [20] of 76.2%. For the same compound, the viability, T/C (second compound 0.316 µM, first compound 0.000316 µM) was 77.1%, the viability, T/C (second compound 0.316 µM, first compound 0.001 µM) was 80.1% and the viability, T/C (second compound 0.316 µM, first compound 0.00316 µM) was 57.1%. The viability, T/C (second compound 0.316 µM, first compound 0.01 µM) was 65.6%, the viability, T/C [25] was 62.3% and the viability, T/C [26] was 61.9%. It also gave a viability, T/C (second compound 1 µM, first compound 0.000316 µM) of 61.5%, a viability, T/C (second compound 1 µM, first compound 0.001 µM) of 48.5% and a viability, T/C (second compound 1 µM, first compound 0.00316 µM) of 54.2%. The viability, T/C (second compound 1 µM, first compound 0.01 µM) was 58%, the viability, T/C [31] was 55.2% and the viability, T/C [32] was 49.8%.
